This note sets out measurements from patent US6147097A, “Imidazole derivatives as anti-HIV agents” (Shionogi & Co., Ltd., priority 1994, dated 2000).

Converted amounts (≈) assume the structure as drawn. Read-outs that look alike come from different tables or passages of the source.

Data set [1] concerns MT-4 cells. Nature of the data set: cytotoxicity in MT-4 cells (MTT, culture medium in place of HIV). Type of data set: cell-based. To be noted: human, mt-4 cells, 120 h. The gist of the method:
(§1)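 MT-4 cells (3.5×10^4 per well) exposed to diluted compound with culture medium added instead of HIV, 5 days at 37° C in CO2. MTT added for 1 h, formazan dissolved in Triton X-100/acidified isopropanol. OD read at 560 nm (690 nm reference) and compared with control.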

In data set [2] the test system is HIV (HTLV-IIIB strain). Nature of the data set: microbe, parasite or virus in culture. It is filed as cell-based. The following applies: Human immunodeficiency virus 1, IIIB, MT4, 120 h. The gist of the method: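 MT-4 cells (3.5×10^4 per well) were infected with HIV at 60 pfu per well in the presence of diluted compound and incubated for 5 days at 37° C. Surviving cells were then measured by MTT reduction, with the formazan dissolved in acidified isopropanol containing Triton X-100.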

The nature of data set [3]: cytotoxicity in MT-4 cells (MTT, culture medium in place of HIV). To be noted: human. It is filed as cell-based. The gist of the method:
as §1

Data set [4] deals with T1, purified recombinant HIV-1 reverse transcriptase (Human immunodeficiency virus type 1 group M subtype B, UniProt P04585).
T1 construct: purified recombinant HIV-1 reverse transcriptase; made in house; host or cells: Escherichia coli
Nature of the data set: reverse transcriptase inhibition, poly(rA)/(dT) template primer, [3H]dTTP uptake. It is filed as biochemical. In outline:
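Inhibition reported as percent reduction of [3H]dTTP incorporation relative to solvent control, after 1 h at 37 °C at pH 8.3. Recombinant RT from E. coli, poly(rA) template with oligo(dT) primer, 4 μM unlabeled dTTP as substrate; product collected on DEAE filter mats.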

Where [5] appears, read: MT-4 cells, 60 pfu HIV per well, 37° C., 5 days, MTT, Tables 1 and 2, read-out: EC50.
Setting [6] is: MT-4 cells, no virus, 37° C., 5 days, MTT, Table 3, read-out: CC50.

Take `CC(O)Cn1c(CO)nc(C(C)C)c1Sc1cc(Cl)cc(Cl)c1` (stereo not shown) [Compound 141a, 5-(3,5-dichlorophenylthio)-2-hydroxymethyl-1-(2-hydroxypropyl)-4-isopropyl-1H-imidazole]: in data set [1], the “EC50 (head of Table 4; CC50 per Test Example 2)” value lay within 12.5 to 25 µg/mL.
Usually EC50 stands for the concentration at which the effect is half-maximal. Broadly, the CC50 is the concentration giving 50% cytotoxicity. As usually defined, the IC50 is the concentration that inhibits the measured activity by half. Compound `CC(C)c1nc(COC(N)=O)n(C)c1Sc1cc(Cl)cc(Cl)c1` [Compound I-41, 2-carbamoyloxymethyl-5-(3,5-dichlorophenylthio)-4-isopropyl-1-methyl-1H-imidazole] came in with an EC50 in data set [2] of 0.016 µg/mL (≈ 0.0427 µM). This compound also yielded a CC50 at 120 h in data set [3] (mt-4 cells) of 8.5 µg/mL (≈ 22.7 µM). Further, the IC50 in data set [4] is 1.34 µM.
Take `CC(C)c1nc(CC(N)=O)n(C)c1Sc1cc(Cl)cc(Cl)c1` [Compound I-135, 2-[5-(3,5-dichlorophenylthio)-4-isopropyl-1-methyl-1H-imidazol-2-yl] acetamide]: in data set [2] (setting [5]), the EC50 is 0.016 to 0.03 µg/mL (≈ 0.0447 to 0.0837 µM). The same compound gave a CC50 at 120 h in data set [3] (mt-4 cells) of 25 to 50 µg/mL (≈ 69.8 to 140 µM). In data set [4], the IC50 was 10.6 µM.
For `CC(C)c1nc(CN=C(N)N)n(C)c1Sc1cc(Cl)cc(Cl)c1` [Compound I-86, 2-diaminomethylenemethylaminomethyl-5-(3,5-dichlorophenylthio)-4-isopropyl-1-methylimidazole], in that order: 1 µg/mL (≈ 2.69 µM), 1 µg/mL (≈ 2.69 µM) and 33.6 µM.
For `CC(C)c1nc(COC(N)=O)n(CCOC(N)=O)c1Sc1cc(Cl)cc(Cl)c1` [Compound I-134, 1-(2-carbamoyloxyethyl)-2-carbamoyloxymethyl-5-(3,5-dichlorophenylthio)-4-isopropyl-1H-imidazole], in that order: 0.0013 µg/mL (≈ 0.00291 µM), 12.5 to 25 µg/mL (≈ 27.9 to 55.9 µM) and 1.54 µM.
In the case of `CCn1c(CCOC(N)=O)nc(C(C)C)c1Sc1cc(Cl)cc(Cl)c1` [Compound I-137, 2-(2-carbamoyloxyethyl)-5-(3,5-dichlorophenylthio)-1-ethyl-4-isopropyl-1H-imidazole], the EC50 in data set [2] was 0.004 to 0.008 µg/mL (≈ 0.00994 to 0.0199 µM). In data set [3] (mt-4 cells), this compound showed a CC50 at 120 h of 50 µg/mL (≈ 124 µM). Further, the IC50 in data set [4] is 8.2 µM.
With `Cc1nc(C(C)C)c(Cc2cc(Cl)cc(Cl)c2)n1C` [Compound I-100, 5-(3,5-dichlorobenzyl)-1,2-dimethyl-4-isopropyl-1H-imidazole], in data set [2] (setting [5]), the EC50 stood at 1 µg/mL (≈ 3.36 µM). Moreover, in data set [3] (setting [6]), the CC50 at 120 h is 12.5 µg/mL (≈ 42.1 µM). Further, the IC50 in data set [4] is 42.1 µM.
With `CCOC(=O)Cn1c(COCc2ccccc2)nc(C(C)C)c1Sc1cc(Cl)cc(Cl)c1` [Compound 118b], the EC50 in data set [2] (setting [5]) came out at 0.25 µg/mL (≈ 0.507 µM). Moreover, the CC50 at 120 h in data set [3] (mt-4 cells) was 12.5 to 25 µg/mL (≈ 25.3 to 50.7 µM). Further, the IC50 in data set [4] was more than 203 µM.
For the compound `CC(C)c1nc(CO)n(Cc2ccccc2[N+](=O)[O-])c1Sc1cc(Cl)cc(Cl)c1` [Compound 103c, 5-(3,5-dichlorophenylthio)-2-hydroxymethyl-4-isopropyl-1-(o-nitrobenzyl)-1H-imidazole], in data set [2] (setting [5]), the EC50 was 0.06 to 0.13 µg/mL (≈ 0.133 to 0.287 µM). The same compound registered a CC50 at 120 h in data set [3] (mt-4 cells) of 6.3 to 12.5 µg/mL (≈ 13.9 to 27.6 µM). The half-maximal inhibitory concentration (IC50) in data set [4] is 57.9 µM.
For `CC(C)c1nc(CO)n(Cc2ccc(N)cc2)c1Sc1cc(Cl)cc(Cl)c1` [Compound 104a, 1-(p-aminobenzyl)-5-(3,5-dichlorophenylthio)-2-hydroxymethyl-4-isopropyl-1H-imidazole], the half-maximal effective concentration (EC50) in data set [2] (setting [5]) was less than 0.008 µg/mL. The CC50 at 120 h in data set [3] (mt-4 cells) lay in the range of 12.5 to 25 µg/mL (≈ 29.6 to 59.2 µM). In data set [4], the IC50 was 3.08 µM.
On to `CCn1c(COC(N)=O)nc(C(C)C)c1Sc1cccc(F)c1` [Compound I-57, 2-carbamoyloxymethyl-1-ethyl-5-(3-fluorophenylthio)-4-isopropylethyl-1H-imidazole], for which the EC50 in data set [2] lay within 0.0005 to 0.001 µg/mL (≈ 0.00148 to 0.00296 µM). For the same compound, the CC50 at 120 h in data set [3] (setting [6]) is 25 to 50 µg/mL (≈ 74.1 to 148 µM). Also, the IC50 in data set [4] (read-out: RT IC50, pH 8.3, 37° C., 1 hour, Tables 5 and 6) is 0.119 µM.
Compound `C=CCn1c(CO)nc(C(C)C)c1Sc1cccc([N+](=O)[O-])c1` [Compound I-22, [1-allyl-4-isopropyl-5-(3-nitrophenylthio)-1H-imidazol-2-yl]methanol] returned an EC50 in data set [2] of 0.002 µg/mL (≈ 0.006 µM). The CC50 at 120 h in data set [3] (setting [6]) turned out to be 25 µg/mL (≈ 75 µM). In data set [4], the IC50 is 1.68 µM.
In the case of `CC(C)c1nc(CO)n(Cc2ccccc2)c1Sc1cc(Cl)cc(Cl)c1` [Compound I-16, [1-benzyl-5-(3,5-dichlorophenylthio)-4-isopropyl-1H-imidazol-2-yl]methanol], the EC50 in data set [2] (setting [5]) lay in the range of 0.008 to 0.016 µg/mL (≈ 0.0196 to 0.0393 µM). The CC50 at 120 h in data set [3] (setting [6]) lay in the range of 12.5 to 25 µg/mL (≈ 30.7 to 61.4 µM). Further, the IC50 in data set [4] is 3.68 µM.
With `Cc1ncccc1Cn1c(COC(N)=O)nc(C(C)C)c1Sc1cc(Cl)cc(Cl)c1` [Compound I-133, 2-carbamoyloxymethyl-5-(3,5-dichlorophenylthio)-4-isopropyl-1-(2-methylpyridin-3-ylmethyl)-1H-imidazole], in data set [2] (setting [5]), the EC50 turned out to be 0.008 µg/mL (≈ 0.0172 µM). In data set [3] (mt-4 cells), this compound registered a CC50 at 120 h of 12.5 µg/mL (≈ 26.9 µM). Moreover, the IC50 in data set [4] was 72.2 µM.
On the same counts, the results for `CC(C)c1nc(CCOC(N)=O)n(Cc2cccc(N)c2)c1Sc1cc(Cl)cc(Cl)c1` [Compound I-142, 1-(m-aminobenzyl)-2-(2-carbamoyloxyethyl)-5-(3,5-dichlorophenylthio)-4-isopropyl-1H-imidazole] are 0.016 to 0.03 µg/mL (≈ 0.0334 to 0.0626 µM), 6.3 to 12.5 µg/mL (≈ 13.1 to 26.1 µM) and 25 µM.
In data set [2], `CCn1c(COC(N)=O)nc(C(C)C)c1Sc1cccc(Cl)c1` [Compound I-53, 2-carbamoyloxymethyl-5-(3-chlorophenylthio)-1-ethyl-4-isopropyl-1H-imidazole] showed an EC50 of 0.004 to 0.008 µg/mL (≈ 0.0113 to 0.0226 µM). In addition, the CC50 at 120 h in data set [3] (setting [6]) lay within 10 to 100 µg/mL (≈ 28.3 to 283 µM). Also, the IC50 in data set [4] was 0.593 µM.
In the case of `CC(=O)OCCOCc1nc(C(C)C)c(Sc2cc(Cl)cc(Cl)c2)n1C` [Compound I-60, 2-{[5-(3,5-dichlorophenylthio)-4-isopropyl-1-methylimidazol-2-yl]methoxy} ethyl acetate], in data set [2] (setting [5]), the EC50 was not below 0.5 µg/mL. The CC50 at 120 h in data set [3] (setting [6]) was 12.5 to 25 µg/mL. Moreover, the IC50 in data set [4] is more than 240 µM.
On the same counts, the results for `CC(C)c1nc(CO)n(Cc2ccccc2)c1Sc1cccc([N+](=O)[O-])c1` [Compound I-21, [1-benzyl-4-isopropyl-5-(3-nitrophenylthio)-1H-imidazol-2-yl]methanol] are 0.008 µg/mL (≈ 0.0209 µM), 6.3 to 12.5 µg/mL (≈ 16.4 to 32.6 µM) and 7.56 µM.
On the same counts, the results for `CC(C)c1nc(COCCOC(N)=O)n(C)c1Sc1cc(Cl)cc(Cl)c1` [Compound I-61, (2-carbamoyloxy)ethoxymethyl-5-(3,5-dichlorophenylthio)-4-isopropyl-1-methyl-1H-imidazole] are 0.5 µg/mL (≈ 1.2 µM), 6.3 to 12.5 µg/mL (≈ 15.1 to 29.9 µM) and 185 µM.
On to `CC(C)c1nc(CCO)n(Cc2cccc([N+](=O)[O-])c2)c1Sc1cc(Cl)cc(Cl)c1` [Compound 126b, 5-(3,5-Dichlorophenylthio)-2-(2-hydroxyethyl)-4-isopropyl-1-m-nitrobenzyl-1H-imidazole], for which the EC50 in data set [2] (setting [5]) is 0.008 to 0.016 µg/mL (≈ 0.0172 to 0.0343 µM). Moreover, in data set [3] (mt-4 cells), the CC50 at 120 h lay within 3.1 to 6.3 µg/mL (≈ 6.65 to 13.5 µM). Moreover, in data set [4], the IC50 is 8.58 µM.
